Data reported in patent US20080300135A1, “5-Alkyl-7-Amino-6-Heteroaryl-1,2,4-Triazolo[1,5-A]Pyrimidine Compounds and Their Use for Controlling Harmful Fungi” (BASF Aktiengesellschaft, priority 2005, published 2008).

Key:
Pyricularia oryzae = type: cell-based; settings: 125 ppm, day 7 after inoculation, absorption 405 nm, control = 100%
Puccinia recondita = experiment: Curative activity against brown rust of wheat (greenhouse test); type: in vivo; settings: 250 ppm, curative spray on wheat seedlings cv. Kanzler, 7 days; untreated control 90% infected
Method: The active compounds were prepared separately as a stock solution with 25 mg of active compound which was made up to 10 ml with a mixture of acetone and/or DMSO and the emulsifier Uniperol® EL (wetting agent having emulsifying and dispersing action based on ethoxylated alkylphenols) in a solvent/emulsifier volume ratio of 99 to 1. The solution was then made up to 100 ml with water. This stock solution was diluted to the active compound concentration stated below using the solvent/emulsifier/water mixture described.
Example No. 1—Curative activity against brown rust of wheat caused by Puccinia recondita
Leaves of potted wheat seedlings of the cultivar “Kanzler” were inoculated with a spore suspension of brown rust (Puccinia recondita). The pots were then placed in a chamber with high atmospheric humidity (90 to 95%) and 20 to 22° C. for 24 hours. During this time, the spores germinated and the germ tubes penetrated into the leaf tissue. The next day, the infected plants were sprayed to runoff point with the above-described active compound solution at the active compound concentration stated below. After the spray coating had dried on, the test plants were cultivated in a greenhouse at temperatures between 20 and 22° C. and at 65 to 70% relative atmospheric humidity for 7 days. The extent of the rust fungus development on the leaves was then determined.

In the case of `Cc1cc(C)n(-c2c(C)nc3ncnn3c2N2CCC(C)CC2)n1` [Compound C-1, 6-(3,5-Dimethylpyrazol-1-yl)-5-methyl-7-(4-methylpiperidin-1-yl)-[1,2,4]-triazolo[1,5-a]pyrimidin], the relative growth (Pyricularia oryzae) is reported as 0% and the infection (Puccinia recondita) is reported as 10%.
